Experimental data from US20140031388A1, “AKT INACTIVATION BY TOCOPHERYL DERIVATIVES” (priority 2012, published 2014).

Legend:
[1] = target: T1, PH domain of PHLPP1 (GST-PH domain fusion protein) (Homo sapiens, UniProt O60346); test: Surface plasmon resonance binding, PHLPP1 PH domain; conditions: SPR; means (n = 3) ± SD; read-out: Kd, PHLPP1 PH domain
T1 construct: made in house
T1 sequence (O60346 536-636 limits assumed): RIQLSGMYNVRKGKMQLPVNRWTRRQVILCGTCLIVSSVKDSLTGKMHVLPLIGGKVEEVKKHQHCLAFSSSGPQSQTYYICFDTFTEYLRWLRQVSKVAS
From the text: (§1) The cDNA fragments corresponding to the putative PH domain sequences of PHLPP1 (+115 to +372), PDK1 (+1225 to +1671), Akt1 (+1 to +447) and ILK (+538 to +646) were PCR-amplified using the plasmids pcDNA-HA-PHLPP1, pWZL-Neo-Myr-FLAG-PDPK1, pcDNA-HA-PKB-T308D-S473D, and pCMV-SPORT-ILK (Addgene) as templates. The PCR products were then cloned into EcoRI/XhoI sites of the pGEX-4T1 expression vector (GE Healthcare Life Sciences) to generate four constructs (pGEX-4T1-PHLPP1, pGEX-4T1-PDPK1, pGEX-4T1-AKT1, pGEX-4T1-ILK) for the expression of GST-PH domain fusion proteins. The mutated Akt1 Y38G PH domain was generated from pGEX-4T1-AKT1 by site-directed mutagenesis using the QuikChange II XL Site-Directed Mutagenesis Kit (Agilent Technologies). The expression and purification of GST-PH domain fusion proteins were performed essentially as described previously. Thomas et al., Curr Biol 12, 1256 (2002). The purified PH domains were analyzed by SDS-PAGE using an overloaded gel with purities were estimated to be >95% using ImageJ software.
(§2) Binding experiments were performed using a Biacore T100 system (GE Healthcare, Piscataway, N.J.). The GST-PH domain fusion proteins were immobilized on a CM5 S Sensorchip using Biacore's Amine Coupling Kit to a level of 17,000 response units. VE5 compounds and di-octanoyl PIP3 at concentrations ranging from 0.1 to 100 μM and 1 to 20 μm, respectively, were injected at a high flow rate (30 μL/min) over the biosensor surface for binding analyses. DMSO concentrations in all samples and running buffer were 1% (v/v) or less. Data were analyzed using Biacore T100 Evaluation Software.

LNCaP-abl cells = test: MTT viability assay, LNCaP-abl; format: cell-based; conditions: Homo sapiens; LNCaP-abl cells (comparable to parental LNCaP); read-out: IC50, antiproliferative effect
Method: (§3) The prostate cancer cell lines, LNCaP and PC-3, were purchased from American Type Culture Collection (Manassas, Va.) and maintained in RPMI 1640 medium containing 10% heat-inactivated fetal bovine serum at 37° C. in a humidified incubator containing 5% CO2. The LNCaP-abl cells were a generous gift from Dr. Qianben Wang (The Ohio State University). Normal prostate epithelial cells were purchased from Lonza (Walkersville, Md.) and were cultured in the vendor-recommended defined prostate epithelial cell growth medium. For experiments, LNCaP cells were plated on poly-D-lysine-coated culture flasks at a density of 12,000 cells per cm^2 surface area for 24 hours, followed by treatment with test agents in serum-free RPMI 1640 medium. The α- and γ-tocopherols were purchased from Sigma-Aldrich (St. Louis, Mo.). The tocopherol derivatives, α- and γ-VE5, were synthesized by the inventors.
LNCaP cells were plated into poly-D-lysine-coated 96-well plates and PC-3 and LNCaP-abl cells into uncoated plates at the density of 5,000 cells per well in the presence of 10% FBS. […] The medium was then removed from each well and replaced with DMSO to dissolve the reduced MTT dye for subsequent colorimetric measurement of absorbance at 595 nm. Cell viabilities are calculated as percentages of that in the corresponding vehicle-treated control group.

[2] = tested on: Normal prostate epithelial cells; test: Viability / apoptosis in normal prostate epithelial cells; format: cell-based; conditions: Epithelial cell
Method: as §3
LNCaP cells were plated into poly-D-lysine-coated 96-well plates and PC-3 and LNCaP-abl cells into uncoated plates at the density of 5,000 cells per well in the presence of 10% FBS. Normal prostate epithelial cells were plated into uncoated plates at a density of 8,000 cells per well. Exposure to test agents in serum-free medium was initiated 24 hours later. After 24 hours of treatment, cells were incubated with MTT [3-(4,5-dimethylthiazol-2-yl)-2,5-diphenyl-2H-tetrazolium bromide] (TCI America; 0.5 mg/ml, final concentration) for an additional 2 hours. The medium was then removed from each well and replaced with DMSO to dissolve the reduced MTT dye for subsequent colorimetric measurement of absorbance at 595 nm. Cell viabilities are calculated as percentages of that in the corresponding vehicle-treated control group.

[3] = target: T2, PH domain of Akt (GST-PH domain fusion protein) (Homo sapiens, UniProt P31749); test: Surface plasmon resonance binding, Akt PH domain; conditions: SPR, wild-type PH domain; means (n = 3) ± SD; read-out: Kd, Akt PH domain
T2 construct: made in house
From the text: as §1, §2

[4] = tested on: mTORC2 (mTOR, rictor, SGK, PKCα); test: Western blot of mTORC2 components and downstream targets; format: cell-based
Method: Cells were exposed to the test agents in 10-cm dishes for 24 hours and then collected by scraping. The cell pellets were washed once with PBS, and then lysed at 4° C. over 30 min of incubation in a sodium dodecyl sulfate (SDS) lysis buffer containing 1% SDS, 50 mM Tris HCl (pH 8.1), 10 mM EDTA and […] protease inhibitor cocktail (Sigma-Aldrich). The cell debris was pelleted by centrifugation for 20 min at 14,000×g, and 1 μl of each supernatant was used for determination of protein concentration using a colorimetric bicinchoninic assay (Pierce, Rockford, Ill.). The remaining sample was added to equal volume of 2×SDS-polyacrylamide gel electrophoresis sample loading buffer (62.5 mM Tris-HCl, pH 6.8, 4% SDS, 5% β-mercaptoethanol, 20% glycerol, 0.1% bromophenol blue), followed by incubation in boiling water for 5 min. Equivalent amounts of total protein were resolved in SDS-polyacrylamide gels, and then transferred to nitrocellulose membranes using a semidry transfer cell. The transblotted membrane was washed twice with Tris-buffered saline containing 0.1% Tween 20 (TBST). After blocking with TBST containing 5% nonfat milk for 40 min, the membrane was incubated with the appropriate primary antibody (1:1000) in TBST-1% nonfat milk at 4° C. overnight. The membrane was then washed three times with TBST for a total of 15 min, followed by incubation with goat anti-rabbit or anti-mouse IgG-horseradish peroxidase conjugates (1:2000) for 1 hour at room temperature and four washes with TBST for a total of 1 hour. The immunoblots were visualized by enhanced chemiluminescence (GE Healthcare Life Sciences).

[5] = target: T3, PH domain of ILK (GST-PH domain fusion protein) (Homo sapiens, UniProt Q13418); test: Surface plasmon resonance binding, ILK PH domain; conditions: SPR; means (n = 3) ± SD; read-out: Kd, ILK PH domain
T3 construct: made in house
T3 sequence (Q13418 180-212 limits assumed): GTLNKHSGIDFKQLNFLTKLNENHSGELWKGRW
From the text: as §1, §2

T2 sequence (P31749 5-108 limits assumed): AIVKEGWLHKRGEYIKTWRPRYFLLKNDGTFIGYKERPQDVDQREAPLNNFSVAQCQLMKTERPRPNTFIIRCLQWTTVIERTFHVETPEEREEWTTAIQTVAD

| Kd [1] [µM] | Kd [3] [µM] | Kd [5] [µM] | Compound | IC50 (LNCaP-abl cells) [µM] | IC50 [2] [µM] | abundance or phosphorylation of mTORC2 components and targets (mTOR, rictor, SGK, PKCα) [4] |
| --- | --- | --- | --- | --- | --- | --- |
| 3.1 ± 0.3 | 3.4 | 26.6 ± 1 | Cc1c(C)c2c(c(C)c1O)CC[C@@](C)(CCCC(C)C)O2 [α-VE5, (R)-2,5,7,8-tetramethyl-2-(4-methylpentyl)-chroman-6-ol] | 10 | ~50 | lack of changes |
| 0.7 ± 0.1 | 0.9 ± 0.1 | 18.7 ± 4.5 | Cc1c(O)cc2c(c1C)O[C@](C)(CCCC(C)C)CC2 [γ-VE5, (R)-2,7,8-trimethyl-2-(4-methylpentyl)-chroman-6-ol] | 7 | ~40 | lack of changes |
